Molecular target: T1, human renin (Homo sapiens, UniProt P00797)
T1 sequence (P00797 67-406): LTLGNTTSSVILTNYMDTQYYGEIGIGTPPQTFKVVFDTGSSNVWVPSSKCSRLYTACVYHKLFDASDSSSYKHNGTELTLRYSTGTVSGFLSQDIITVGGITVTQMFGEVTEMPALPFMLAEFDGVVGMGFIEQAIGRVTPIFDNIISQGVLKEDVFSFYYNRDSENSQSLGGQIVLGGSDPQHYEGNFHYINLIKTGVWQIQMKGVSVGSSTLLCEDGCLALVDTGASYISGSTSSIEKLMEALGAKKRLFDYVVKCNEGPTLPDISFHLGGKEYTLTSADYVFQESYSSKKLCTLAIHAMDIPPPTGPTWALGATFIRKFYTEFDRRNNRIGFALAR
Experiment: Determination of renin IC50 by tGFP FRET assay
Type: biochemical
Conditions: Human recombinant renin, tandem GFP substrate 650 nM, 60 min incubation with compound, pH 7.4, 11-point curve
Excerpt: Determination of Renin IC50 by tGFP FRET Assay
The tGFP FRET (fluorescence resonance energy transfer) assay utilizes a tandem GFP substrate (60 kDa, Discovery Technologies) containing nine amino acid recognition sequences for human renin flanked by two GFP proteins. The assay is used to determine the ability of a compound to act as an inhibitor of renin enzymatic activity by determination of that concentration of test compound that inhibits by 50% (IC50) the ability of renin to cleave the tandem GFP substrate. The IC50 values are determined over an 11-point curve at concentrations of 100 μM to 1 pM. Each compound concentration used to construct the curve was dependent on renin inhibitor potency. For example, subnanomolar IC50 values were determined over an 11-point curve at concentrations of 10 μM to 1 pM. All other IC50 values were determined over an 11-point curve at concentrations of 100 μM to 0.0065 μM. The concentrations were achieved by diluting a 9.1 nM stock of Human recombinant renin in the appropriate amount of buffer containing 50 mM HEPES, 1 mM EDTA, 1% PEG (8000 MW), 1 mM DTT, 0.1% BSA, pH 7.4 to achieve the final concentration of 50.4 μIU. The tGFP substrate stock solution of 43 μM was diluted with the appropriate amount of the above buffer to obtain the final concentration of 650 nM. In addition, 1 μl of the compound is diluted in dimethylsulfoxide (DMSO) to represent an […] log scale (5% final). The SR renin and compound are added to a 384 capacity plate by an automated robot (BIOMEK). The plate is incubated for 60 minutes; upon completion the tGFP substrate is added.
The IC50 is determined by monitoring the increase in […] at 432/432 nm excitation, 530/475 nm emission with a cutoff at 515/455 nm, in a fluorometric plate reader.

| SMILES | IC50 |
| --- | --- |
| COc1ccccc1COCCCOc1ccc(N2C(=O)CNC[C@@H]2COCc2ccccn2)cc1 [Example 29, (6R)-1-{4-[3-(2-methoxybenzyloxy)-propoxy]-phenyl}-6-(pyridin-2-ylmethoxymethyl)-piperazin-2-one] | > 1000 nM |
| COC(=O)CN1C(=O)COc2ccc(OC[C@H]3CNCC(=O)N3c3ccc(OCCCOCc4ccccc4OC)cc3)cc21 [Example 118, [6-([2R]-1-{4-[3-(2-Methoxybenzyloxy)-propoxy]-phenyl}-6-oxo-piperazin-2-ylmethoxy)-3-oxo-2,3-dihydro-benzo[1,4]oxazin-4-yl]-acetic acid methyl ester] | 6.83 nM |
| COc1ccccc1COCCCOc1ccc(N2C(=O)CNC[C@@H]2COCc2cccc(F)c2)cc1 [Example 18, (6R)-6-(3-fluorobenzyloxymethyl)-1-{4-[3-(2-methoxybenzyloxy)-propoxy]-phenyl}-piperazin-2-one] | > 1000 nM |
| COCCCN1C(=O)CCc2ccc(OC[C@H]3CNCC(=O)N3c3ccc(OCCCOCc4ccccc4OC)cc3)cc21 [Example 111, 7-([2R]-1-{4-[3-(2-Methoxybenzyloxy)-propoxy]-phenyl}-6-oxopiperazin-2-ylmethoxy)-1-(3-methoxypropyl)-3,4-dihydro-1H-quinolin-2-one] | 3.91 nM |
| COc1ccccc1OCCCOCc1ccc(N2C(=O)CNC[C@@H]2COCc2ccc(F)cc2)cc1 [Example 76, (6R)-6-(4-fluorobenzyloxymethyl)-1-{4-[3-(2-methoxyphenoxy)-propoxymethyl]-phenyl}-piperazin-2-one] | > 1000 nM |
| COc1ccc(COC[C@H]2CNCCN2c2ccc(COCCCOc3ccccc3OC)cc2)cc1 [Example 70, (2R)-2-(4-methoxybenzyloxymethyl)-1-{4-[3-(2-methoxyphenoxy)-propoxymethyl]-phenyl}-piperazine] | > 1000 nM |
| COc1cccc(COCCCOc2ccc(N3CCNC[C@@H]3COc3ccc4ccccc4c3)cc2)c1 [Example 89, (2R)-1-{4-[3-(3-methoxybenzyloxy)-propoxy]-phenyl}-2-(naphthalen-2-yloxymethyl)-piperazine] | 23700 nM |
| COc1ccccc1COCCCOc1ccc(N2C(=O)CNC[C@@H]2CNC(=O)c2ccccc2)cc1 [Example 84, N-([2R]-1-{4-[3-(2-methoxy-benzyloxy)-propoxy]-phenyl}-6-oxopiperazin-2-ylmethyl)-benzamide] | > 1000 nM |
| COc1ccccc1COCCCOc1ccc(N2C(=O)CNC[C@@H]2COCc2c(F)cccc2F)cc1 [Example 16, (6R)-6-(2,6-difluorobenzyloxymethyl)-1-{4-[3-(2-methoxybenzyloxy)-propoxy]-phenyl}-piperazin-2-one] | > 1000 nM |
| COc1ccccc1COCCOCc1ccc(N2CCNC[C@@H]2COc2ccc3ccccc3c2)cc1 [Example 94, (2R)-1-{4-[2-(2-methoxybenzyloxy)-ethoxymethyl]-phenyl}-2-(naphthalene-2-yloxymethyl)-piperazine] | 2550 nM |
| COc1ccccc1COCCCOc1ccc(N2C(=O)CNC[C@@H]2COc2ccc3c(c2)N(CCO)CCC3)cc1 [Example 57, (6R)-6-[1-(2-hydroxyethyl)-1,2,3,4-tetrahydroquinolin-7-yloxymethyl]-1-{4-[3-(2-methoxybenzyloxy)-propoxy]-phenyl}-piperazin-2-one] | 64 nM |
| O=C(NCCc1ccccc1)c1ccc(N2C(=O)CNC[C@@H]2COc2ccc3ccccc3c2)cc1 [Example 47, 4-[(2R)-2-(naphthalen-2-yloxymethyl)-6-oxopiperazin-1-yl]-N-phenethylbenzamide] | > 1000 nM |
| COc1ccccc1CSCCCOc1ccc(N2CCNC[C@@H]2COc2ccc3ccccc3c2)cc1 [Example 102, (2R)-1-{4-[3-(2-methoxybenzylsulfanyl)-propoxy]-phenyl}-2-(naphthalene-2-yloxymethyl)-piperazine] | > 1000 nM |
| COc1ccccc1OCCCCOc1ccc(N2CCNC[C@@H]2COc2ccc3ccccc3c2)cc1 [Example 108, (2R)-1-{4-[4-(2-methoxyphenoxy)-butoxy]-phenyl}-2-(naphthalene-2-yloxymethyl)-piperazine] | 1360 nM |
| COc1ccccc1COCCCOc1ccc(N2C(=O)CNC[C@@H]2CNC(=O)c2ccc(Cl)cc2)cc1 [Example 83, 4-chloro-N-([2R]-1-{4-[3-(2-methoxybenzyloxy)-propoxy]-phenyl}-6-oxopiperazin-2-ylmethyl)-benzamide] | > 1000 nM |
| COc1ccccc1COCCCOc1ccc(N2C(=O)CNC[C@@H]2COCc2ccc(F)cc2C(F)(F)F)cc1 [Example 19, (6R)-6-(4-fluoro-2-trifluoromethylbenzyloxymethyl)-1-{4-[3-(2-methoxybenzyloxy)-propoxy]-phenyl}-piperazin-2-one] | > 1000 nM |
| COc1ccc(COCCCOc2ccc(N3CCNC[C@@H]3COCc3ccc(OC)cc3)cc2)cc1 [Example 65, (2R)-2-(4-methoxybenzyloxymethyl)-1-{4-[3-(4-methoxybenzyloxy)-propoxy]-phenyl}-piperazine] | > 1000 nM |
| COc1ccccc1COCCCOc1ccc(N2C(=O)CNC[C@@H]2COc2ccc3c(c2)NCCC3)cc1 [Example 42, (6R)-1-{4-[3-(2-methoxybenzyloxy)-propoxy]-phenyl}-6-(1,2,3,4-tetrahydroquinolin-7-yloxymethyl)-piperazin-2-one] | 124 nM |
| COc1ccc(COC[C@H]2CNCCN2c2ccc(COCCOCc3ccccc3OC)cc2)cc1 [Example 72, (2R)-1-{4-[2-(2-methoxybenzyloxy)-ethoxymethyl]-phenyl}-2-(4-methoxybenzyloxymethyl)-piperazine] | 30500 nM |
| COc1ccc2ccc(OC[C@H]3CNCC(=O)N3c3ccc(OCCCOCc4ccccc4OC)cc3)cc2c1 [Example 105, (6R)-1-{4-[3-(2-methoxybenzyloxy)-propoxy]-phenyl}-6-(7-methoxynaphthalen-2-yloxymethyl)-piperazin-2-one] | 225 nM |
| COc1cccc(COC[C@H]2CNCC(=O)N2c2ccc(OCCCOCc3ccccc3OC)cc2)c1 [Example 9, (6R)-6-(3-methoxybenzyloxymethyl)-1-{4-[3-(2-methoxybenzyloxy)-propoxy]-phenyl}-piperazin-2-one] | 612 nM |
| COc1ccccc1COCCCOc1ccc(N2C(=O)CNC[C@@H]2COCc2ccc(F)c(C)c2)cc1 [Example 27, (6R)-6-(4-fluoro-3-methylbenzyloxymethyl)-1-{4-[3-(2-methoxybenzyloxy)-propoxy]-phenyl}-piperazin-2-one] | > 1000 nM |
| COc1ccccc1COCCCOc1ccc(N2C(=O)CNC[C@@H]2CNC(=O)c2ccccc2OC)cc1 [Example 82, 2-methoxy-N-([2R]-1-{4-[3-(2-methoxybenzyloxy)-propoxy]-phenyl}-6-oxopiperazin-2-ylmethyl)-benzamide] | > 1000 nM |
| COc1ccccc1COCCCOc1ccc(N2C(=O)CNC[C@@H]2COC(=O)c2ccc3ccccc3c2)cc1 [Example 58, naphthalene-2-carboxylic acid (2R)-1-{4-[3-(2-methoxybenzyloxy)-propoxy]-phenyl}-6-oxopiperazin-2-yl methyl ester] | > 1000 nM |
| COCCCN1CCCc2ccc(OC[C@H]3CNCC(=O)N3c3ccc(OCCCOCc4ccccc4OC)cc3)cc21 [Example 109, (6R)-1-{4-[3-(2-Methoxybenzyloxy)-propoxy]-phenyl}-6-[1-(3-methoxypropyl)-1,2,3,4-tetrahydroquinolin-7-yloxymethyl]-piperazin-2-one] | 3.17 nM |
| COc1ccccc1COCCCOc1ccc(N2C(=O)CNC[C@@H]2COc2ccc3ccccc3c2)cc1Cl [Example 100, (6R)-1-(3-chloro-4-[3-(2-methoxybenzyloxy)-propoxy]-phenyl)-6-(naphthalene-2-yloxymethyl)-piperazin-2-one] | > 1000 nM |
| CCC(=O)OCCN1CCCc2ccc(OC[C@H]3CNCC(=O)N3c3ccc(OCCCOCc4ccccc4OC)cc3)cc21 [Example 123, Propionic acid 2-[7-([2R]-1-{4-[3-(2-methoxybenzyloxy)-propoxy]-phenyl}-6-oxopiperazin-2-ylmethoxy)-3,4-dihydro-2H-quinolin-1-yl]-ethyl ester] | 9 nM |
| COc1ccccc1COCCCOc1ccc(N2C(=O)CNC[C@@H]2COc2ccccn2)cc1 [Example 80, (6R)-1-{4-[3-(2-methoxybenzyloxy)-propoxy]-phenyl}-6-(pyridin-2-yloxymethyl)-piperazin-2-one] | 20900 nM |
